Results: patent publication US10781226B2, “Photoactivatable cancer prodrug” (Texas State University, priority 2017, dated 2020)
In brackets after ≈: the same amount, converted by molar mass. Blank lines part the entries; values can stand above or below the compound they belong to.

How the values were obtained:
[1] = system: A375, A431, A549, MRC-5 cells; experiment: Photocytotoxicity assay, summary across cell lines; assay type: cell-based
[2] = Solubility in demineralized water; assay type: physicochemical; conditions: read-out: maximum solubility
tubulin = conditions: polymerization enhancer control
Description: Raw fluorescence was normalized by initial fluorescence for each sample. Samples consists of the caged drug (not irradiated), the caged drug irradiated with green light, and the caged drug irradiated with blue light.
In this assay, increased fluorescence indicates tubulin polymerization.

SMILES: [NH2][Pt]([NH2])([Cl])[Cl] [CDDP, cisplatin]
EC50 ([1]; range across all tested cell lines): 850 to 3060 nM

SMILES: F[P-](F)(F)(F)(F)F.F[P-](F)(F)(F)(F)F.O.[Ru+2].c1ccc(-c2cccc(-c3ccccn3)n2)nc1.c1ccc(-c2ccccn2)nc1 [[3](PF6)2]
activity across all tested cell lines ([1]; all tested cell lines): no activity

solubility [2]: 10 µM (≈ 4.04 µg/mL)
SMILES: CSCCCc1nc(=O)c2c(-c3ccccc3)c(C(=O)c3ccccc3)[nH]c2[nH]1 [compound 1]

SMILES: CC(=O)O[C@H]1C(=O)[C@@]2(C)[C@H]([C@H](OC(=O)c3ccccc3)[C@]3(O)C[C@H](OC(=O)[C@H](O)[C@@H](NC(=O)c4ccccc4)c4ccccc4)C(C)=C1C3(C)C)[C@]1(OC(C)=O)CO[C@@H]1C[C@@H]2O [paclitaxel, reference compound]
tubulin polymerization (tubulin): induces rapid polymerization of tubulin
